Reference: US12419877B2, “Solid forms of {[5-(3-chlorophenyl)-3-hydroxypyridine-2-carbonyl]amino}acetic acid, compositions, and uses thereof” (Akebia Therapeutics, Inc., priority 2013, dated 2025)
Converted amounts (≈) assume the structure as drawn. Where two headings read alike, the source gives them in different places.

Legend:
[1] = Dynamic Vapour Sorption (DVS) with XRPD re-analysis; assay type: physicochemical
Procedure: Dynamic Vapour Sorption (DVS) was performed on a DVS-1 dynamic vapour sorption balance by Surface Measurement Systems. Approximately 10-20 mg of sample was loaded into a wire mesh vapour sorption balance pan of the balance. The sample was subjected to a ramping profile from 20-90% relative humidity (RH) in 10% increments, maintaining the sample at each step until a stable weight had been achieved (99.5% step completion) or 1000 minutes had elapsed. After completion of the sorption cycle, the sample was dried using the same procedure, but all the way down to 0% RH and finally taken back to the starting point of 20% RH. The weight change during the sorption/desorption cycles were plotted, allowing for the hygroscopic nature of the sample to be determined. Following the DVS analysis, the solid was re-analysed by XRPD in order to determine whether there had been any change in physical form.

[2] = Solubility experiments (approximate solubility by solvent aliquot addition); assay type: physicochemical; settings: thermodynamic from solid
Procedure: Approximately 20 mg of Form A of Compound (1) was placed in each of 48 vials and 5 volume aliquots of the appropriate solvent systems were added to the appropriate vial. Between each addition, the mixture was checked for dissolution and if no dissolution was apparent, the mixture was warmed to ca. 50° C. and checked again. This procedure was continued until dissolution was observed or until 100 volumes of solvent had been added.

O=C(O)CNC(=O)c1ncc(-c2cccc(Cl)c2)cc1O [Form A of Compound (I), {[5-(3-chlorophenyl)-3-hydroxypyridine-2-carbonyl]amino}acetic acid]
water sorption at 90% RH ([1]; DVS, 90% RH): 0.13%
XRPD analysis following DVS (change in physical form) ([1]; after DVS sorption/desorption cycle): no change in form
hygroscopicity (DVS) ([1]; judged from water sorption at 90% RH): non-hygroscopic
solubility ([2]; aqueous with cosolvent or surfactant or cyclodextrin, Solvent: MeOH/Water (20%), ca. 50° C., read-out: Solubility (mg/mL) (ca. 50° C.)): < 10 mg/mL
solubility ([2]; aqueous with cosolvent or surfactant or cyclodextrin, Solvent: MeOH/Water (50%), RT (ca. 22° C.), read-out: Solubility (mg/mL) RT (ca. 22° C.)): < 10 mg/mL
solubility ([2]; aqueous with cosolvent or surfactant or cyclodextrin, Solvent: MeOH/Water (50%), ca. 50° C., read-out: Solubility (mg/mL) (ca. 50° C.)): < 10 mg/mL
solubility ([2]; ethyl acetate/cyclohexane (1:2), organic solvent or mixture, Solvent: EtOAc/Cyclohexane (1:2), RT (ca. 22° C.), read-out: Solubility (mg/mL) RT (ca. 22° C.)): < 10 mg/mL
solubility ([2]; organic solvent or mixture, Solvent: 1,2-Propanediol, RT (ca. 22° C.), read-out: Solubility (mg/mL) RT (ca. 22° C.)): < 20 mg/mL
solubility ([2]; organic solvent or mixture, Solvent: 1,2-Propanediol, ca. 50° C., read-out: Solubility (mg/mL) (ca. 50° C.)): 20 mg/mL (≈ 65.2 mM)
solubility ([2]; organic solvent or mixture, Solvent: 1,4-Dioxane, RT (ca. 22° C.), read-out: Solubility (mg/mL) RT (ca. 22° C.)): > 200 mg/mL
solubility ([2]; organic solvent or mixture, Solvent: 1,4-Dioxane, ca. 50° C., read-out: Solubility (mg/mL) (ca. 50° C.)): > 200 mg/mL
solubility ([2]; organic solvent or mixture, Solvent: 1-Butanol (1-BuOH), RT (ca. 22° C.), read-out: Solubility (mg/mL) RT (ca. 22° C.)): < 20 mg/mL
solubility ([2]; organic solvent or mixture, Solvent: 1-Butanol (1-BuOH), ca. 50° C., read-out: Solubility (mg/mL) (ca. 50° C.)): 20 mg/mL (≈ 65.2 mM)
solubility ([2]; organic solvent or mixture, Solvent: 1-Propanol (1-PrOH), RT (ca. 22° C.), read-out: Solubility (mg/mL) RT (ca. 22° C.)): < 20 mg/mL
solubility ([2]; organic solvent or mixture, Solvent: 1-Propanol (1-PrOH), ca. 50° C., read-out: Solubility (mg/mL) (ca. 50° C.)): 20 mg/mL (≈ 65.2 mM)
solubility ([2]; organic solvent or mixture, Solvent: 2-Ethoxyethanol, RT (ca. 22° C.), read-out: Solubility (mg/mL) RT (ca. 22° C.)): < 200 mg/mL
solubility ([2]; organic solvent or mixture, Solvent: 2-Ethoxyethanol, ca. 50° C., read-out: Solubility (mg/mL) (ca. 50° C.)): 200 mg/mL (≈ 652 mM)
solubility ([2]; organic solvent or mixture, Solvent: 2-Methoxyethanol, RT (ca. 22° C.), read-out: Solubility (mg/mL) RT (ca. 22° C.)): > 200 mg/mL
solubility ([2]; organic solvent or mixture, Solvent: 2-Methoxyethanol, ca. 50° C., read-out: Solubility (mg/mL) (ca. 50° C.)): > 200 mg/mL
solubility ([2]; organic solvent or mixture, Solvent: 2-Methyl tetrahydrofuran (2-MeTHF), RT (ca. 22° C.), read-out: Solubility (mg/mL) RT (ca. 22° C.)): > 200 mg/mL
solubility ([2]; organic solvent or mixture, Solvent: 2-Methyl tetrahydrofuran (2-MeTHF), ca. 50° C., read-out: Solubility (mg/mL) (ca. 50° C.)): > 200 mg/mL
solubility ([2]; organic solvent or mixture, Solvent: 2-Propanol (IPA), RT (ca. 22° C.), read-out: Solubility (mg/mL) RT (ca. 22° C.)): < 13 mg/mL
solubility ([2]; organic solvent or mixture, Solvent: 2-Propanol (IPA), ca. 50° C., read-out: Solubility (mg/mL) (ca. 50° C.)): 13 mg/mL (≈ 42.4 mM)
solubility ([2]; organic solvent or mixture, Solvent: 3-Methyl-1-butanol, RT (ca. 22° C.), read-out: Solubility (mg/mL) RT (ca. 22° C.)): < 10 mg/mL
solubility ([2]; organic solvent or mixture, Solvent: 3-Methyl-1-butanol, ca. 50° C., read-out: Solubility (mg/mL) (ca. 50° C.)): < 10 mg/mL
solubility ([2]; organic solvent or mixture, Solvent: Acetone/Water (3%), RT (ca. 22° C.), read-out: Solubility (mg/mL) RT (ca. 22° C.)): < 200 mg/mL
solubility ([2]; organic solvent or mixture, Solvent: Acetone/Water (3%), ca. 50° C., read-out: Solubility (mg/mL) (ca. 50° C.)): 200 mg/mL (≈ 652 mM)
solubility ([2]; organic solvent or mixture, Solvent: Acetone/Water (20%), RT (ca. 22° C.), read-out: Solubility (mg/mL) RT (ca. 22° C.)): < 200 mg/mL
solubility ([2]; organic solvent or mixture, Solvent: Acetone/Water (20%), ca. 50° C., read-out: Solubility (mg/mL) (ca. 50° C.)): 200 mg/mL (≈ 652 mM)
solubility ([2]; organic solvent or mixture, Solvent: Acetone, RT (ca. 22° C.), read-out: Solubility (mg/mL) RT (ca. 22° C.)): 100 mg/mL (≈ 326 mM)
solubility ([2]; organic solvent or mixture, Solvent: Acetone, ca. 50° C., read-out: Solubility (mg/mL) (ca. 50° C.)): > 100 mg/mL
solubility ([2]; organic solvent or mixture, Solvent: Acetonitrile, RT (ca. 22° C.), read-out: Solubility (mg/mL) RT (ca. 22° C.)): < 13 mg/mL
solubility ([2]; organic solvent or mixture, Solvent: Acetonitrile, ca. 50° C., read-out: Solubility (mg/mL) (ca. 50° C.)): 13 mg/mL (≈ 42.4 mM)
solubility ([2]; organic solvent or mixture, Solvent: Anisole, RT (ca. 22° C.), read-out: Solubility (mg/mL) RT (ca. 22° C.)): < 40 mg/mL
solubility ([2]; organic solvent or mixture, Solvent: Anisole, ca. 50° C., read-out: Solubility (mg/mL) (ca. 50° C.)): 40 mg/mL (≈ 130 mM)
solubility ([2]; organic solvent or mixture, Solvent: Benzonitrile, RT (ca. 22° C.), read-out: Solubility (mg/mL) RT (ca. 22° C.)): < 10 mg/mL
solubility ([2]; organic solvent or mixture, Solvent: Benzonitrile, ca. 50° C., read-out: Solubility (mg/mL) (ca. 50° C.)): < 10 mg/mL
solubility ([2]; organic solvent or mixture, Solvent: Benzyl alcohol, RT (ca. 22° C.), read-out: Solubility (mg/mL) RT (ca. 22° C.)): < 68 mg/mL
solubility ([2]; organic solvent or mixture, Solvent: Benzyl alcohol, ca. 50° C., read-out: Solubility (mg/mL) (ca. 50° C.)): 68 mg/mL (≈ 222 mM)
solubility ([2]; organic solvent or mixture, Solvent: Chloroform, RT (ca. 22° C.), read-out: Solubility (mg/mL) RT (ca. 22° C.)): < 10 mg/mL
solubility ([2]; organic solvent or mixture, Solvent: Chloroform, ca. 50° C., read-out: Solubility (mg/mL) (ca. 50° C.)): < 10 mg/mL
solubility ([2]; organic solvent or mixture, Solvent: Cumene, RT (ca. 22° C.), read-out: Solubility (mg/mL) RT (ca. 22° C.)): < 10 mg/mL
solubility ([2]; organic solvent or mixture, Solvent: Cumene, ca. 50° C., read-out: Solubility (mg/mL) (ca. 50° C.)): < 10 mg/mL
solubility ([2]; organic solvent or mixture, Solvent: Cyclohexane, RT (ca. 22° C.), read-out: Solubility (mg/mL) RT (ca. 22° C.)): < 10 mg/mL
solubility ([2]; organic solvent or mixture, Solvent: Cyclohexane, ca. 50° C., read-out: Solubility (mg/mL) (ca. 50° C.)): < 10 mg/mL
solubility ([2]; organic solvent or mixture, Solvent: Cyclohexanone, RT (ca. 22° C.), read-out: Solubility (mg/mL) RT (ca. 22° C.)): < 200 mg/mL
solubility ([2]; organic solvent or mixture, Solvent: Cyclohexanone, ca. 50° C., read-out: Solubility (mg/mL) (ca. 50° C.)): 200 mg/mL (≈ 652 mM)
solubility ([2]; organic solvent or mixture, Solvent: Dichloromethane (DCM), RT (ca. 22° C.), read-out: Solubility (mg/mL) RT (ca. 22° C.)): < 10 mg/mL
solubility ([2]; organic solvent or mixture, Solvent: Dichloromethane (DCM), ca. 50° C., read-out: Solubility (mg/mL) (ca. 50° C.)): < 10 mg/mL
